Assay results published in patent US12383535B2, “Hydrogen peroxide-responsive KEAP1-NRF2 ppi inhibitor prodrug, and preparation method therefor” (CHINA PHARMACEUTICAL UNIVERSITY, priority 2019, dated 2025).

Experiments:
RAW264.7 cells = experiment: Antioxidant capacity assays (SOD, GSH-Px, GSH/GSSG, MPO); type: cell-based, mouse
Excerpt: Subsequently, to investigate the effect of pro2 on antioxidant capacity in inflammatory conditions, the activities of superoxide dismutase (SOD) and glutathione peroxidase (GPx) were examined. […] In addition, the GSH/GSSG ratio and myeloperoxidase (MPO) activity were also examined, which are two important markers indicating oxidative stress.

C57BL/6 mice = experiment: LPS-induced mouse acute inflammation model; type: in vivo; conditions: LPS 300 μg/kg mice
Description: Female C57BL/6 mice (6-8 weeks old, 18-20 g in weight) were acclimatized with drinking water for 2 days, and were randomized to eight groups: (A) control group (n=3); (B) LPS (Sigma-Aldrich, St. Louis, No. L4130) model group (300 μg/kg/day, n=8); (C) LPS (300 μg/kg/day)+pro2 low-dose (10 mg/kg/day) group (n=8); (D) LPS (300 μg/kg/day)+pro2 high-dose (40 mg/kg/day) group (n=8); (E) LPS (300 μg/kg/day)+active parent compound 2 high-dose (40 mg/kg/day) group (n=8); (F) LPS (300 μg/kg/day)+dexamethasone low-dose (10 mg/kg/day) group (n=8); (G) pro2 high-dose (40 mg/kg/day) group (n=3); and (H) active parent compound 2 high-dose (40 mg/kg/day) group (n=3). Animals of groups A, G and H were given IP injections of 500 μL of normal saline each time (on days −3, −2 and −1). All LPS-stimulated mice were IP-injected with 500 μL of LPS (on days −3, −2 and −1), and 4 h after the injection the mice were given corresponding compound treatment (on days −3, −2 and −1). Animals were sacrificed (day 0) 24 h after the last dose of the compound to collect the serum, and the levels of cytokine IL-1β, IL-6, TNF-α and IFN-γ in the serum were determined by ELISA.

[1] = pKa and log D by Avdeef-Bucher potentiometric titration; type: physicochemical
Description: Through Avdeef-Bucher potentiometric titration, pKa and partition coefficients (log D, pH 7.4) were determined on a Gemini Profiler instrument (pION) according to the method of Avdeef and Tsinman. pH measurements were used to determine the intrinsic solubility.

[2] = Parallel artificial membrane permeability assay (PAMPA); type: in vitro ADME
Description: Potential solubility data were obtained with a pSOL model 3 instrument (pION INC, Cambridge, Massachusetts, USA). Cell membrane permeability was determined on a PAMPA Explorer instrument (pION).
Subsequently, the permeability of cell membranes was measured by standard parallel artificial membrane permeability assay (PAMPA).

[3] = tested on: Nrf2/ARE luciferase reporter in HepG2-ARE-C8 cells; experiment: ARE-luciferase activity assay; type: cell-based; conditions: no LPS (physiological conditions)
Description: HepG2-ARE-C8 cells were plated in a 96-well plate at a density of 4×10^4 cells/well and incubated overnight. The cells were then incubated with different concentrations of the test compound, with DMSO as a negative control and a luciferase cell lysis agent as a blank control. After 12 h of treatment, the medium was removed and 100 μL of pre-cooled PBS was added to each well to wash the cells. PBS was then removed and 30 μL of the luciferase cell lysis agent was added. After 15 min of lysis on ice, the cells were harvested and centrifuged, and 20 μL of the supernatant was taken for luciferase activity assay according to the protocol provided by the manufacturer (Promega, Madison, WI). The luciferase activity was measured by Luminoskan Ascent (Thermo Scientific, USA). The assay was performed in triplicate and the inductivity fold was calculated by comparing with the control.

[4] = In vivo pharmacokinetic study; set-up: species or system SD rats; conditions: rat
Description: Six male SD rats weighing about 260 g were used, with 3 rats for PO study and the other 3 rats for IV study. The test compound was dissolved in normal saline with a cosolvent to prepare a solution before the study. For the PO study, animals were administered orally (10 mg/kg). […] Blood was sampled at 0.0833, 0.25, 0.5, 1, 2, 4, 6, 8, 24 h in groups IV and PO. The blood samples were preserved on ice and then centrifuged at 2000 rpm and 4° C. for 10 min for separating plasma. The plasma samples were transferred and stored at −80° C. before analysis by LC-MS/MS.

[5] = tested on: Nrf2-ARE-driven gene transcription in RAW264.7 cells; experiment: Real-time quantitative PCR of Nrf2, HO-1, NQO1 and GCLM; type: cell-based, mouse; conditions: 20 ng/mL LPS 8 h, compound 500 nM
Description: The procedures were performed according to the real-time quantitative RT-PCR experimental procedures reported previously (Z. Jiang, M. Lu, Q. D. You, Discovery and Development of Kelch-like ECH-Associated Protein 1: Nuclear Factor Erythroid 2-Related Factor 2 (KEAP1:NRF2) Protein-Protein Interaction Inhibitors: Achievements, Challenges and Future Directions, J. Med. Chem., 59 (2016) 10837-10858). The primers used for qRT-PCR were as follows: Nrf2 (forward primer: AACCACCCTGAAAGCACGC, reverse primer: […]); HO-1 (forward primer: […], reverse primer: […]); NQO-1 (forward primer: CGCAGACCTT-GTGATATTCCAG, reverse primer: […]); GCLM (forward primer: […], reverse primer: […]).
To determine the effect of pro2 on Nrf2-ARE-driven gene transcription, mRNA levels of Nrf2 and three downstream genes, HO-1, NQO1 and GCLM, were examined ((A) of FIG. 4 to (D) of FIG. 4). […] The protein levels of the above genes were determined by western blot.

Stability in plasma = type: in vitro ADME
Description: (2) Stability in plasma. Samples (20 μM) of the prodrug pro2 were co-incubated in triplicate with mouse plasma at 37° C. at different time periods. Methanol was added to precipitate the proteins, and the samples were vortexed and then centrifuged at 12,000 rpm for 5 min. The supernatants were analyzed by HPLC and the peak areas were recorded.

## COc1ccc(S(=O)(=O)Nc2ccc(N(CC(=O)N3CCSC3=O)S(=O)(=O)c3ccc(OC)cc3)c3ccccc23)cc1 [pro2]
RAW264.7 cells; LPS 20 ng/mL
  SOD and GSH-Px activity: restored the SOD and GSH-Px activity significantly
RAW264.7 cells; LPS exposure
  GSH/GSSG ratio and MPO activity: return markers to near normal
C57BL/6 mice; compound 10 mg/kg
  anti-inflammatory effect (serum IL-1β, IL-6, TNF-α, IFN-γ): comparable therapeutic effect to dexamethasone
C57BL/6 mice; compound high dose 40 mg/kg, oral
  anti-inflammatory effect (serum IL-1β, IL-6, TNF-α, IFN-γ): stronger effect
[1]
  pKa: 4.53
[1]; pH 7.4
  LogD at pH 7.4: 2.34
[2]
  Pe at pH 7.4: 6.35 10^−6 cm/s
[2]; pH 7.4, read-out: Pe at pH 7.4
  Papp: 6.35 ×10⁻⁶ cm/s
[3]
  ARE inductivity: remained almost inactive even at the highest concentration
[4]; I.V. 2 mg/kg
  AUC0-t: 1842 ± 363 ng·h/mL
  AUC0-∞: 1854 ± 366 ng·h/mL
  Cl_F: 18.5 ± 3.9 mL/min/kg
  MRT: 1.25 ± 0.30 h
  T1/2: 4.41 ± 3.01 h
  Vz_F: 6.44 ± 4.09 L/kg
[4]; P.O. 10 mg/kg
  AUC0-t: 6203 ± 248 ng·h/mL
  AUC0-∞: 6315 ± 273 ng·h/mL
  Cl_F: 26.4 ± 1.14 mL/min/kg
  Cmax: 2753 ± 15.3 ng/mL
  MRT: 1.82 ± 0.35 h
  T1/2: 2.09 ± 0.93 h
  Tmax: 0.67 ± 0.29 h
  Vz_F: 4.79 ± 2.17 L/kg
[4]; oral
  bioavailability: 68.1%
[5]
  transcription of Nrf2, HO-1, NQO1 and GCLM (mRNA): greatly enhanced the transcription
Stability in plasma
  stability in rat plasma: very stable
